{"source": "patent US20220306640A1", "about": "“HYDANTOIN DERIVATIVE” (ONO PHARMACEUTICAL CO., LTD., priority 2019, published 2022)", "molecular_target": "T1, DDR1 phosphorylation in kidney (Mus musculus, UniProt Q03146)", "T1 construct": "from tissue; host or cells: kidney of C57BL/6J mice (UUO model)", "T1 sequence (Q03146 20-911)": "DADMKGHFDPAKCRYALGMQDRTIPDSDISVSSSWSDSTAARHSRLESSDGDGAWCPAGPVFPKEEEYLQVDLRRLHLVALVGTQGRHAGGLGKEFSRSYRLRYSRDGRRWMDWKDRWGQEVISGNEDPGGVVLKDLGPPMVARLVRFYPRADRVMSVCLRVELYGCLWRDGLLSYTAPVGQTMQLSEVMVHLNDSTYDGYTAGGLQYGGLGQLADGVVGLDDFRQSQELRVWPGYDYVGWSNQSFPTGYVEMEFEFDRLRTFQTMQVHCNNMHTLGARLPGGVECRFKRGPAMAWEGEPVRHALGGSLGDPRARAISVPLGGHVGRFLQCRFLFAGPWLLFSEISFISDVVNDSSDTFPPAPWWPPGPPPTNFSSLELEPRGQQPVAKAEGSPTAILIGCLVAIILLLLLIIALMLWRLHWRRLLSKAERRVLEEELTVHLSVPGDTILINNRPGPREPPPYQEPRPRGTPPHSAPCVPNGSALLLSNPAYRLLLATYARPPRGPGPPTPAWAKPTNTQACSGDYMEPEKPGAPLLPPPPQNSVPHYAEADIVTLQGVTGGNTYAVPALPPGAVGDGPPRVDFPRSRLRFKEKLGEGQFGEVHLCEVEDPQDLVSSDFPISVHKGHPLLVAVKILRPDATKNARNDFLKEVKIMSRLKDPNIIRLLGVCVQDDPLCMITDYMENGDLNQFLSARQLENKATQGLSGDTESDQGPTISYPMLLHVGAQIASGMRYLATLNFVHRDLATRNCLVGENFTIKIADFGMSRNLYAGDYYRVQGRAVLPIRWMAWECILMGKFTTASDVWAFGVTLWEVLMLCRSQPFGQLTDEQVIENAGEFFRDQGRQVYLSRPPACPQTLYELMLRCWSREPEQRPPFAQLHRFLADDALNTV", "assay": "Measurement of DDR1 phosphorylation suppression rate by using UUO (unilateral ureteral obstruction) model (in vivo test)", "set-up": "species or system C57BL/6J mice", "settings": "UUO mice, dose of 10 mg/kg, oral single dose, kidney 8 h after dosing, relative to the difference between the untreated group and control group", "method": "Biological Example 4: Measurement of DDR1 phosphorylation suppression rate by using UUO (unilateral ureteral obstruction) model (in vivo test).\nSpecies & Strain: C57BL/6J mice\nMice were randomly assigned to respective groups based on the animal's body weight.\nSurgery was performed in male C57BL/6J mice on Day 0. With the mice under anesthesia, operation area was disinfected with 75% alcohol after shaving. Mice in UUO group were exposed left ureter through a small incision on the left side of the abdomen and ligated with 3-0 silk at two locations about 0.5 cm below the renal hilum. Normal control mice were had their ureters manipulated but not ligated. Zoletil combined with Xylazine (20:1, v:v) were used in this study, the final dose of Zoletil was 25 mg/kg.\nRoute: oral administration\nDosage: 1, 3 and 10 mg/kg\nBody weights of all animals were measured prior surgery and prior dosing. Clinical observations of all animals were monitored and recorded daily throughout the study. […]\nOn Day 3, all animals were euthanized with carbon dioxide. […] Then the samples were analyzed by Elisa.\nDDR1 and p-DDR1 levels in ipsilateral kidney samples were analyzed by Elisa method. […]\nAll statistical tests were conducted, and the level of significance was set at 5% or P<0.05. The group means and standard deviation were calculated for all measurement parameters as study designed. […]"}
{"smiles": "Cc1cc(Oc2ccnc(N)n2)ccc1N1C(=O)CN(c2ccc(F)c(OC(F)(F)F)c2)C1=O", "note": "[Example 3(110), 3-{4-[(2-amino-4-pyrimidinyl)oxy]-2-methylphenyl}-1-[4-fluoro-3-(trifluoromethoxy)phenyl]-2,4-imidazolidinedione]", "values": [{"measurement": "DDR1 phosphorylation suppression", "value": 50, "unit": "%"}]}
